In patent US8632982B2, “Biomarkers for liver injury” (Institute for Systems Biology, priority 2009, dated 2014):

Tested on: C57BL6/J mice
Test: Murine model: liver damage induced with acetaminophen, serum markers by SPR antibody array and Western blot
Type: in vivo
Conditions: male C57BL6/J mice, 300 mg/kg intraperitoneally
Description: The effectiveness of various proteins as markers was tested by inducing liver damage in mice using acetaminophen and then assessing serum for various proteins by surface plasmon resonance (SPR) detection of complex formation with the relevant antibody and confirmed by Western blot. The known marker, AST, was used as a control.
Nine week old male C57BL6/J mice were fasted for 24 hours and then administered 300 mg/kg acetaminophen intraperitoneally. The mice were euthanized with CO2 and whole blood was collected via cardiac puncture at various time intervals. The whole blood was incubated at 4° C. for 12 hours and centrifuged at 2,000 g for 10 minutes to obtain serum which was stored at −80° C. and then analyzed by SPR antibody array as described above and validated by Western blot. (The concentration of the known marker serum […] (AST) was determined by enzymatic assay.)

Compound: CC(=O)Nc1ccc(O)cc1 [acetaminophen]
- plasma levels of plasminogen and RBP4 (Western blot, FIG. 3) (12-24 hours): decrease
- serum levels of control marker AST (enzymatic assay) (same time as the novel markers): corresponding increase
- plasma level of the 12 markers whose level increases in the event of liver injury (Western blot, FIG. 3) (fasted 24 hours, after 12-24 hours, after which the levels declined): elevated levels
